Target: T1, pooled human liver microsome (HLM) preparations (Homo sapiens, UniProt Q02928)
T1 sequence (Q02928 5-519): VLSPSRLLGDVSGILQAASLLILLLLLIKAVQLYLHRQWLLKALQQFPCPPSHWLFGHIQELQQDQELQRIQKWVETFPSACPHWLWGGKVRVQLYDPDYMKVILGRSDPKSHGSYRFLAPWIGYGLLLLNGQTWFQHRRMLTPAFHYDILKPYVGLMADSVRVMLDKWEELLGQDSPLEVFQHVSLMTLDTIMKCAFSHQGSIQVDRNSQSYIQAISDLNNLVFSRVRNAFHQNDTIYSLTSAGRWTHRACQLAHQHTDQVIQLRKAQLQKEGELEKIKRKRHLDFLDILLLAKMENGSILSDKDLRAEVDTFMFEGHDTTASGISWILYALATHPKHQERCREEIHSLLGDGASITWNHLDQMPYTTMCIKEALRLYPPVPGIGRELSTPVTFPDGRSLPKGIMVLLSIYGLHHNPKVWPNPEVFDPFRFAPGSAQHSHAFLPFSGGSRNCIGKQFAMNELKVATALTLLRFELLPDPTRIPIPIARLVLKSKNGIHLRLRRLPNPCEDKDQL
Assay: Inhibition of MONACRA demethylation in pooled HLM preparations
Format: biochemical
Details: all studied HLM samples; from inhibitory analysis with epalrestat
Source text: To probe the role of CYP4A11 and CYP1A2 in MONACRA metabolism by HLM, we employed inhibitory analysis with the use of epalrestat as a specific inhibitor of CYP4A11 [22] and fluvoxamine as a CYP1A2 inhibitor [37]. We explored the effect of the inhibitors on the activity of recombinant CYP1A2 and CYP4A11, as well as the activity of six different preparations of HLM (preparation X347 was not available at the time of the study).
Figure 12: Effect of epalrestat (A) and fluvoxamine (B) on 3-(6-methoxynaphthalen-2-yl)acrylic acid (MONACRA) demethylation by recombinant CYP1A2 (black) and CYP4A11 (red) and three pooled human liver microsome (HLM) preparations: X263 (green), DNJ (blue), and WGP (brown). Solid lines represent the approximation of the datasets by eqn 1 (in the instances of pure inhibition) or a combination of two hyperbolic equations (in the cases of activation or combined inhibition and activation). All experiments were carried out at 150 µM MONACRA concentration. The datasets shown in the graphs represent the averages of the results of four (fluvoxamine) or two (epalrestat) individual experiments.
This study used preparations of pooled HLMs from 50, 150, or 200 donors (mixed gender). The preparations CDN, DNJ, and WGP were INVITROCYP 150-Donor Human Liver Microsomes obtained from BioIVT Corporation (Westbury, NY). Lot EGW is INVITROCYP M-Class 50-Donor HLM procured from the same company. Lots 1,910,096 and 1,210,347 were XTreme 200 Mixed Gender HLM (200 donors) purchased from XenoTech LLC (Kansas City, KS), currently a part of BioIVT. Lot 2,110,263 corresponds to mixed gender HLM from 50 donors from the same company. These lots are referred to herein as X096, X347, and X263, respectively. The supplier of the HLM preparations used in our studies, BioIVT Corporation, has declared to adhere to the regulations of the Department of Health and Human Services for the protection of human subjects (45 CFR §46.116 and §46.117) and Good Clinical Practice, (ICH E6) in obtaining the samples of human tissues used for producing the preparations of human subcellular fractions available from these companies.
Inhibition of MONACRA metabolism by epalrestat and fluvoxamine was studied using the high-throughput assay described above. The substrate concentration was kept constant at 150 µM. Each column of the well plate comprised eight wells with different concentrations of inhibitor complemented with two wells with no inhibitor added (100% activity samples) and two wells with no inhibitor and no NADPH added (‘blank’ samples). […] The fractional inhibition at each inhibitor concentration was determined from the ratio of the reaction rate in the presence of an inhibitor to the rate observed at no inhibitor added. The resulting dependence of the fractional inhibition on the inhibitor concentration was fitted to a four-parameter logistic equation (Hill equation):
(1) FI=v0−vi/v0=Amax[I]^N/IC50+[I]^N
In this equation, F I and vi are the fractional inhibition and the reaction velocity observed at inhibitor concentration [I], v0 is the reaction rate at no inhibitor added, and A max is the maximal amplitude of inhibition. IC 50 is the concentration of inhibitor at which the inhibition reaches 50% of its maximal amplitude (A max), and N is the Hill coefficient.

share of MONACRA demethylation for which CYP4A11 is responsible: > 93%
Compound: COc1ccc2cc(C=CC(=O)O)ccc2c1 [MONACRA, 3-(6-methoxynaphthalen-2-yl)acrylic acid]
